Target: c-kit (Homo sapiens, UniProt P10721)
Assay: c-kit assays of Examples 40 and 41 (AlphaScreen kinase assays at 10 and 100 μM ATP, 33P-ATP filter assay, M-07e SCF-stimulated proliferation and phosphorylation)

Sequence of c-kit (P10721 with tags, fused parts or gaps): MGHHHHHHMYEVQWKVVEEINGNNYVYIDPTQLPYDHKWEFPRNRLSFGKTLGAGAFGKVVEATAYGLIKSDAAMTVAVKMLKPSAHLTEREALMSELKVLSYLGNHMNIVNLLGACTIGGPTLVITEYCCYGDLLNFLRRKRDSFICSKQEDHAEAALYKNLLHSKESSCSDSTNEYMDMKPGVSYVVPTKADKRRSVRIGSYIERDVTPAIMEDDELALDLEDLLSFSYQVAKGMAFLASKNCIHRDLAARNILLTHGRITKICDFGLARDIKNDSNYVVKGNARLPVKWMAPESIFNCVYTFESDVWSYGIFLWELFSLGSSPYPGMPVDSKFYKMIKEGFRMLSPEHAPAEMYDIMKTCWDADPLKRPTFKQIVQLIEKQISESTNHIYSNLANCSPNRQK

IC50, < 1000 nM:
c1ccc(CNc2ccc(Cc3c[nH]c4ncccc34)cn2)cc1 [P-0001, benzyl-[5-(1H-pyrrolo[2,3-b]pyridin-3-ylmethyl)-pyridin-2-yl]-amine]
O=C(c1ccc(NCc2ccccc2)nc1)c1c[nH]c2ncccc12 [P-0002, (6-Benzylamino-pyridin-3-yl)-(1H-pyrrolo[2,3-b]pyridin-3-yl)-methanone]
COc1ccc(CNc2ccc(Cc3c[nH]c4ncccc34)cn2)cc1 [P-0004, (4-methoxy-benzyl)-[5-(1H-pyrrolo[2,3-b]pyridin-3-ylmethyl)-pyridin-2-yl]-amine]
c1csc(CNc2ccc(Cc3c[nH]c4ncccc34)cn2)c1 [P-0008, [5-(1H-pyrrolo[2,3-b]pyridin-3-ylmethyl)-pyridin-2-yl]-thiophen-2-ylmethyl-amine]
COc1ccnc2[nH]cc(Cc3ccc(NCc4ccc(Cl)cc4)nc3)c12 [P-0010, [5-(4-Methoxy-1H-pyrrolo[2,3-b]pyridin-3-ylmethyl)-pyridin-2-yl]-(4-chloro-benzyl)-amine]
COc1ccnc2[nH]cc(Cc3ccc(NCc4ccc(C(F)(F)F)cc4)nc3)c12 [P-0011, [5-(4-Methoxy-1H-pyrrolo[2,3-b]pyridin-3-ylmethyl)-pyridin-2-yl]-(4-trifluoromethyl-benzyl)-amine]
Cc1nc(NCc2ccc(C(F)(F)F)cc2)ccc1Cc1c[nH]c2ncccc12 [P-0013, [6-Methyl-5-(1H-pyrrolo[2,3-b]pyridin-3-ylmethyl)-pyridin-2-yl]-(4-trifluoromethyl-benzyl)-amine]
Cc1nc(NCc2ccc(Cl)cc2)ccc1Cc1c[nH]c2ncccc12 [P-0014, (4-Chloro-benzyl)-[6-methyl-5-(1H-pyrrolo[2,3-b]pyridin-3-ylmethyl)-pyridin-2-yl]-amine]
O=C(c1ccc(NCc2ccc(F)cc2)nc1)c1c[nH]c2ncccc12 [P-0015, [6-(4-Fluoro-benzylamino)-pyridin-3-yl]-(1H-pyrrolo[2,3-b]pyridin-3-yl)-methanone]
O=C(c1ccc(NCc2ccc(C(F)(F)F)cc2)nc1)c1c[nH]c2ncccc12 [P-0017, (1H-Pyrrolo[2,3-b]pyridin-3-yl)-[6-(4-trifluoromethyl-benzylamino)-pyridin-3-yl]-methanone]
O=C(c1ccc(NCc2cccs2)nc1)c1c[nH]c2ncccc12 [P-0018, (1H-Pyrrolo[2,3-b]pyridin-3-yl)-{6-[(thiophen-2-ylmethyl)-amino]-pyridin-3-yl}-methanone]
COc1ccc(Cc2c[nH]c3nccc(-c4ccsc4)c23)cn1 [P-0022, 3-(6-Methoxy-pyridin-3-ylmethyl)-4-thiophen-3-yl-1H-pyrrolo[2,3-b]pyridine]
O=C(c1ccc(Nc2cccc(O)c2)nc1)c1c[nH]c2ncccc12 [P-0027, [6-(3-Hydroxy-phenylamino)-pyridin-3-yl]-(1H-pyrrolo[2,3-b]pyridin-3-yl)-methanone]
Clc1ccc(CNc2ccc(Cc3c[nH]c4ncc(Br)cc34)cn2)cc1 [P-0038, [5-(5-Bromo-1H-pyrrolo[2,3-b]pyridin-3-ylmethyl)-pyridin-2-yl]-(4-chloro-benzyl)-amine]
Clc1ccc(CNc2ccc(Cc3c[nH]c4ncccc34)nn2)cc1 [P-0092, (4-Chloro-benzyl)-[6-(1H-pyrrolo[2,3-b]pyridin-3-ylmethyl)-pyridazin-3-yl]-amine]
c1cnc2[nH]cc(Cc3ccc(NCc4ccc(CN5CCOCC5)cc4)nc3)c2c1 [P-0093, (4-Morpholin-4-ylmethyl-benzyl)-[5-(1H-pyrrolo[2,3-b]pyridin-3-ylmethyl)-pyridin-2-yl]-amine]

From patent publication US9487515B2, “Compounds modulating c-fms and/or c-kit activity and uses therefor” (Plexxikon Inc., priority 2006, dated 2016)
